Columns and labels:
[1] = mRNA encapsulation efficiency of lipid nanoparticles; type: physicochemical; settings: for Encapsulation efficiency (EE): LNP with cationic lipid CL-A
Text: In embodiments, the lipid nanoparticle encapsulates a nucleic acid, optionally an mRNA encoding a peptide or protein. In embodiments, the lipid nanoparticle encapsulates an mRNA encoding a peptide or protein, optionally for use in a vaccine. In embodiments, the peptide is an antigen. As used herein, the phrase “encapsulation percentage” refers to the fraction of therapeutic agent (e.g. mRNA) that is effectively encapsulated within a liposomal-based vehicle (e.g. a lipid nanoparticle) relative to the initial fraction of therapeutic agent present in the lipid phase. In embodiments, the lipid nanoparticles have an encapsulation percentage for mRNA of at least 50%. In embodiments, the lipid nanoparticles have an encapsulation percentage for mRNA of at least 55%. In embodiments, the lipid nanoparticles have an encapsulation percentage for mRNA of at least 60%. In embodiments, the lipid nanoparticles have an encapsulation percentage for mRNA of at least 65%. In embodiments, the lipid nanoparticles have an encapsulation percentage for mRNA of at least 70%. In embodiments, the lipid nanoparticles have an encapsulation percentage for mRNA of at least 75%. In embodiments, the lipid nanoparticles have an encapsulation percentage for mRNA of at least 80%. In embodiments, the lipid nanoparticles have an encapsulation percentage for mRNA of at least 85%. In embodiments, the lipid nanoparticles have an encapsulation percentage for mRNA of at least 90%. In embodiments, the lipid nanoparticles have an encapsulation percentage for mRNA of at least 95%. In embodiments, the encapsulation percentage is calculated by performing the Ribogreen assay (Invitrogen) with and without the presence of 0.1% Triton-X 100.
The lipid nanoparticles in the examples of the present invention were formulated using Process A of WO 2018/089801 (see, e.g., Example 1 and FIG. 1 of WO 2018/089801). Process A (“A”) relates to a conventional method of encapsulating mRNA by mixing mRNA with a mixture of lipids, without first pre-forming the lipids into lipid nanoparticles. In an exemplary process, an ethanolic solution of a mixture of lipids (cationic lipid, phosphatidylethanolamine, cholesterol, and polyethylene glycol-lipid) at a fixed lipid to mRNA ratio were combined with an aqueous buffered solution of target mRNA at an acidic pH under controlled conditions to yield a suspension of uniform LNPs. After ultrafiltration and diafiltration into a suitable diluent system, the resulting nanoparticle suspensions were diluted to final concentration, filtered, and stored frozen at −80° C. until use.
(§1) Lipid nanoparticle formulations 3 were prepared by Process A at a molar ratio of 40:1.5:30:28.5 (Cationic Lipid: DMG-PEG2000: Cholesterol: Helper Lipid) with the cationic lipids and helper lipids disclosed in the tables below. The Polydispersity Index (Pdl) of lipid nanoparticles can be determined by diluting the formulation in 10% trehalose at about 0.1 mg/ml mRNA concentration and then measuring the size on Malvern zetasizer. The lipid nanoparticle size can be obtained with Malvern Zetasizer Nano-ZS.

[2] = Dynamic light scattering of lipid nanoparticles (size, PDI); type: physicochemical
Procedure: as §1
Dynamic light scattering (DLS) measurements were performed using a Malvern Instruments Zetasizer with a backscattering detector angle of 173° and a 4-mW, 633-nm He—Ne laser (Worcestershire, UK). The samples were analyzed by diluting in 10% Trehalose and measuring the size and Poly dispersity Index (PDI) in an optical grade polystyrene cuvette.

hEPO [3] = assay: IM EPO expression of LNPs containing new helper lipids (hEPO in serum by ELISA); type: in vivo, female BALB/cJ mice; settings: single IM injection; for 24-h EPO: serum 24 hours post injection
Procedure: Lipid nanoparticles were formulated containing the four lipid components shown below at a ratio of 40:30:28.5:1.5, complexed with a hEPO messenger RNA. • Cationic lipid, 40 mol % • Phospholipid (PEA) helper lipid, 30 mol % • Cholesterol, 28.5 mol % • DMG-PEG-2K (1,2-dimyristoyl-rac-glycero-3-methoxypolyethyleneglycol), 1.5 mol % The cationic lipid component of each formulation was selected from the compounds in the table below: […]
EPO expression studies were conducted with female BALB/cJ mice 6-8 weeks of age. Mice were dosed with […] EPO mRNA in 30 μL of LNPs by a single intramuscular (IM) injection into the gastrocnemius leg muscle. Blood samples were taken 6 and 24 hours post injection and hEPO levels were measured in the blood serum of the mice using an ELISA assay according to the manufacture's protocol. WO2022/099003 A1 also describes an in vivo assay for intramuscular administration (e.g. on page 46, paragraph [00206]).

hEPO [4] = assay: IV EPO expression of LNPs (tail vein injection); type: in vivo, female BALB/cJ mice; settings: cationic lipid CL-0137, helper lipid 30 mol %; 0.017 μg EPO mRNA tail vein; 6 hours; DOPE = 1
Procedure: Lipid nanoparticles were formulated containing the four lipid components shown below at a ratio of 40:30:28.5:1.5, complexed with a hEPO messenger RNA. • Cationic lipid CL-0137, 40 mol % • Helper lipid, 30 mol % • Cholesterol, 28.5 mol % • DMG-PEG-2K (1,2-dimyristoyl-rac-glycero-3-methoxypolyethyleneglycol), 1.5 mol %
EPO expression studies were conducted with female BALB/cJ mice 6-8 weeks of age. Mice were dosed with 0.017 μg EPO mRNA LNPs in a volume of 5 ul by a single tail vein injection. Blood samples were taken 6 hours post injection and hEPO levels were measured in the blood serum of the mice using an ELISA assay according to the manufacture's protocol.

[5] = LNP with cationic lipid CL-A, hEPO mRNA, 40:30:28.5:1.5
[6] = CL-A LNP, 0.1 μg EPO mRNA in 30 μL, serum 6 hours post injection
[7] = CL-B LNP, serum 6 hours post injection

| SMILES | Encapsulation efficiency (EE) [1] [%] | EE ([1]; LNP with cationic lipid CL-B) [%] | EE ([1]; LNP with cationic lipid CL-C) [%] | EE ([1]; LNP with cationic lipid CL-D) [%] | Polydispersity Index (PDI) ([2]; LNP with cationic lipid CL-A) | Size [2, 5] [nm] | PDI ([2]; LNP with cationic lipid CL-B) | Size ([2]; LNP with cationic lipid CL-B) [nm] | PDI ([2]; LNP with cationic lipid CL-C) | Size ([2]; LNP with cationic lipid CL-C) [nm] | PDI ([2]; LNP with cationic lipid CL-D) | Size ([2]; LNP with cationic lipid CL-D) [nm] | 6-h EPO (hEPO [3]; [6]) [ng/mL] | 24-h EPO (hEPO [3]; CL-A LNP) [ng/mL] | 6-h EPO (hEPO [3]; [7]) [ng/mL] | 24-h EPO (hEPO [3]; CL-B LNP) [ng/mL] | 6-h EPO (hEPO [3]; CL-C LNP) [ng/mL] | 6-h EPO (hEPO [3]; CL-C LNP, (6-h)) [ng/mL] | Normalized Mean IV EPO expression (hEPO [4]) |
| --- | --- | --- | --- | --- | --- | --- | --- | --- | --- | --- | --- | --- | --- | --- | --- | --- | --- | --- | --- |
| CCCCCCCCOC(=O)CCCCCCCC(=O)OC(COC(=O)CCCCCCC(=O)OC(CCCCCCCC)CCCCCCCC)COP(=O)(O)OCCN(C)C (centres unmarked) [Compound 11, 1-(1-(((2-(Dimethylamino)ethoxy)(hydroxy)phosphoryl)oxy)-3-((8-(heptadecan-9-yloxy)-8-oxooctanoyl)oxy)propan-2-yl) 9-octyl nonanedioate] | 94 | 88 | 86 | 93 | 0.068 | 173 | 0.066 | 102.1 | 0.119 | 85.5 | 0.121 | 96.6 | 19.251 | 11.25 | 5.2 | 4.8 | 7.4 | 8.7 | 1.17 |
| CCCCCCCCC(CCCCCCCC)OC(=O)CCCCCCC(=O)OCC(COP(=O)(O)OCC[N+](C)(C)C)OC(=O)CCCCCCC(=O)OC(CCCCCCCC)CCCCCCCC (centres unmarked) [Compound 24, 2-(((2,3-Bis((8-(heptadecan-9-yloxy)-8-oxooctanoyl)oxy)propoxy)(hydroxy)-phosphoryl)oxy)-N,N,N-trimethylethan-1-aminium] | 94 | 87 | 85 | – | 0.055 | 160 | 0.111 | 107.0 | 0.116 | 108.8 | – | – | 19.2 | – | 29.4 | – | – | 19.5 | 1.82 |
| CC(C)CCCCOC(=O)CCCCCCC(=O)OCC(COP(=O)(O)OCCN(C)C)OC(=O)CCCCCCC(=O)OCCCCC(C)C (centres unmarked) [Compound 8, O′^1,O^1-(3-(((2-(Dimethylamino)ethoxy)(hydroxy)phosphoryl)-oxy)propane-1,2-diyl) 8-bis(5-methylhexyl) di(octanedioate)] | 89 | 18 | 87 | 28 | 0.06 | 116 | 0.146 | 92.3 | 0.102 | 91.1 | 0.061 | 151.4 | – | – | – | – | 0.5 | 1.4 | 0.29 |
| CCCCCCCCC(CCCCCCCC)C(=O)OCCCCCC(=O)OCC(COP(=O)(O)OCCN(C)C)OC(=O)CCCCCOC(=O)C(CCCCCCCC)CCCCCCCC (centres unmarked) [Compound 17, ((3-(((2-(Dimethylamino)ethoxy)(hydroxy)phosphoryl)oxy)propane-1,2-diyl)bis(oxy))bis(6-oxohexane-6,1-diyl) bis(2-octyldecanoate)] | 93 | 81 | 60 | – | 0.071 | 137 | 0.022 | 122.7 | 0.054 | 110.9 | – | – | 16.3 | – | 14.5 | – | – | 31.7 | 4.53 |
| CCCCCCCCC(CCCCCCCC)C(=O)OCCCCCCC(=O)OCC(COP(=O)(O)OCCN(C)C)OC(=O)CCCCCCOC(=O)C(CCCCCCCC)CCCCCCCC (centres unmarked) [Compound 18, ((3-(((2-(Dimethylamino)ethoxy)(hydroxy)phosphoryl)oxy)propane-1,2-diyl)bis(oxy))bis(7-oxoheptane-7,1-diyl) bis(2-octyldecanoate)] | 93 | 89 | 89 | – | 0.072 | 155 | 0.104 | 117.5 | 0.104 | 117.5 | – | – | 30.1 | – | 23.7 | – | – | 28.8 | 4.68 |
| CCCCCCCCOC(=O)CCCCCCCC(=O)OCC(COP(=O)(O)OCCN(C)C)OC(=O)CCCCCCCC(=O)OCCCCCCCC (centres unmarked) [Compound 7, O′^1,O^1-(3-(((2-(Dimethylamino)ethoxy)(hydroxy)phosphoryl)oxy)-propane-1,2-diyl) 9-dioctyl di(nonanedioate)] | 88 | 92 | 92 | 85 | 0.09 | 120 | 0.111 | 88.2 | 0.099 | 87.4 | 0.089 | 121.9 | – | – | 3.7 | 1.4 | 2.6 | 5.5 | 0.52 |
| CCCCCCCCC(CCCCC)COC(=O)CCC(=O)OCC(COP(=O)(O)OCCN)OC(=O)CCC(=O)OCC(CCCCC)CCCCCCCC (centres unmarked) [Compound 5, O,O′-(3-(((2-Aminoethoxy)(hydroxy)phosphoryl)oxy)propane-1,2-diyl) bis(2-pentyldecyl) disuccinate] | 91 | 90 | 88 | – | 0.106 | 121 | 0.108 | 98.9 | 0.047 | 97.9 | – | – | – | – | 9.8 | 6.4 | 10.1 | 13.3 | 1.25 |

From patent US20260224688A1, “HELPER LIPIDS FOR NUCLEIC ACID DELIVERY” (SANOFI PASTEUR INC., priority 2023, published 2026)
